Read-outs that look alike come from different tables or passages of the source.

Test in all cases: Glasshouse assay for herbicidal activity (pre- and post-emergence), percentage phytotoxicity
What all share (assay type): in vivo

Experiment [1] has as its system Alopecurus myosuroides (ALOMY). The note with it: Alopecurus myosuroides. An outline of the steps:
(§1)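 Visually rated damage, 0–100%. PRE spray 1 d after sowing, scored 20 DAA; POST spray ~12 d, scored 15 DAA. Glasshouse at 65% humidity, 16 h day.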

Experiment [2] deals with Avena fatua (AVEFA). The note with it: Avena fatua. An outline of the steps: as §1
Experiment [3] relates to Echinochloa crus-galli (ECHCG). The note with it: Echinochloa crus-galli. An outline of the steps:
as §1

In experiment [4] the test system is Lolium perenne (LOLPE). The note with it: Lolium perenne. An outline of the steps:
as §1

The mark [5] stands for this setting: post-emergence, 360 h, 250 g/ha, post-emergence, 15 DAA, visual assessment (100%=total damage, 0%=no damage), read-out: Post-emergence herbicidal activity (percentage phytotoxicity) ALOMY POST.
Setting [6] is: pre-emergence, 480 h, 250 g/ha, pre-emergence, 20 DAA, visual assessment (100%=total damage, 0%=no damage), read-out: Pre-emergence herbicidal activity (percentage phytotoxicity) ALOMY PRE.
Where [7] appears, read: post-emergence, 360 h, 250 g/ha, post-emergence, 15 DAA, visual assessment (100%=total damage, 0%=no damage), read-out: Post-emergence herbicidal activity (percentage phytotoxicity) AVEFA POST.
The mark [8] stands for this setting: pre-emergence, 480 h, 250 g/ha, pre-emergence, 20 DAA, visual assessment (100%=total damage, 0%=no damage), read-out: Pre-emergence herbicidal activity (percentage phytotoxicity) AVEFA PRE.
Where [9] appears, read: post-emergence, 360 h, 250 g/ha, post-emergence, 15 DAA, visual assessment (100%=total damage, 0%=no damage), read-out: Post-emergence herbicidal activity (percentage phytotoxicity) ECHCG POST.
[10] abbreviates: pre-emergence, 480 h, 250 g/ha, pre-emergence, 20 DAA, visual assessment (100%=total damage, 0%=no damage), read-out: Pre-emergence herbicidal activity (percentage phytotoxicity) ECHCG PRE.
Setting [11] is: post-emergence, 360 h, 250 g/ha, post-emergence, 15 DAA, visual assessment (100%=total damage, 0%=no damage), read-out: Post-emergence herbicidal activity (percentage phytotoxicity) LOLPE POST.
Where [12] appears, read: pre-emergence, 480 h, 250 g/ha, pre-emergence, 20 DAA, visual assessment (100%=total damage, 0%=no damage), read-out: Pre-emergence herbicidal activity (percentage phytotoxicity) LOLPE PRE.
[13] abbreviates: post-emergence, 360 h, Rate 250 g/ha, post-emergence, visual assessment 15 DAA, 100%=total damage, 0%=no damage, read-out: Post-emergence herbicidal activity (percentage phytotoxicity) ALOMY POST.
Setting [14] is: pre-emergence, 480 h, Rate 250 g/ha, pre-emergence, visual assessment 20 DAA, 100%=total damage, 0%=no damage, read-out: Pre-emergence herbicidal activity (percentage phytotoxicity) ALOMY PRE.
The mark [15] stands for this setting: post-emergence, 360 h, Rate 250 g/ha, post-emergence, visual assessment 15 DAA, 100%=total damage, 0%=no damage, read-out: Post-emergence herbicidal activity (percentage phytotoxicity) AVEFA POST.
The mark [16] stands for this setting: pre-emergence, 480 h, Rate 250 g/ha, pre-emergence, visual assessment 20 DAA, 100%=total damage, 0%=no damage, read-out: Pre-emergence herbicidal activity (percentage phytotoxicity) AVEFA PRE.
Setting [17] is: post-emergence, 360 h, Rate 250 g/ha, post-emergence, visual assessment 15 DAA, 100%=total damage, 0%=no damage, read-out: Post-emergence herbicidal activity (percentage phytotoxicity) ECHCG POST.
Setting [18] is: pre-emergence, 480 h, Rate 250 g/ha, pre-emergence, visual assessment 20 DAA, 100%=total damage, 0%=no damage, read-out: Pre-emergence herbicidal activity (percentage phytotoxicity) ECHCG PRE.
[19] abbreviates: post-emergence, 360 h, Rate 250 g/ha, post-emergence, visual assessment 15 DAA, 100%=total damage, 0%=no damage, read-out: Post-emergence herbicidal activity (percentage phytotoxicity) LOLPE POST.
[20] abbreviates: pre-emergence, 480 h, Rate 250 g/ha, pre-emergence, visual assessment 20 DAA, 100%=total damage, 0%=no damage, read-out: Pre-emergence herbicidal activity (percentage phytotoxicity) LOLPE PRE.

On to `Cc1cc(C)c(C2C(=O)CC(CC(=O)NCc3ccc(F)cc3)C2=O)c(C)c1` (centres unmarked) [Compound B16], for which the pest or weed control at 250 g/ha in experiment [1] (setting [5]) worked out at 70%; in experiment [1] (setting [6]) it was 80%; in experiment [2] (setting [7]), 70%; in experiment [2] (setting [8]), 30%; in experiment [3] (setting [9]) it was 90%; in experiment [3] (setting [10]) it was 90%. The pest or weed control at 250 g/ha in experiment [4] (setting [11]) and in experiment [4] (setting [12]) was 90% in each case.
Regarding `Cc1cc(-c2ncc(Cl)cc2Cl)cc(C)c1C1C(=O)CC(CC(=O)NC(C)(C)C)C1=O` (centres unmarked) [Compound A168], the pest or weed control at 250 g/ha was found to be 90% in experiment [1] (post-emergence, 360 h, post-emergence, 250 g/ha, 15 DAA, visual score (100%=total damage; 0%=no damage), read-out: ALOMY POST herbicidal activity (percentage phytotoxicity)); 80% in experiment [1] (pre-emergence, 480 h, pre-emergence, 250 g/ha, 20 DAA, visual score (100%=total damage; 0%=no damage), read-out: ALOMY PRE herbicidal activity (percentage phytotoxicity)); 90% in experiment [2] (post-emergence, 360 h, post-emergence, 250 g/ha, 15 DAA, visual score (100%=total damage; 0%=no damage), read-out: AVEFA POST herbicidal activity (percentage phytotoxicity)); 20% in experiment [2] (pre-emergence, 480 h, pre-emergence, 250 g/ha, 20 DAA, visual score (100%=total damage; 0%=no damage), read-out: AVEFA PRE herbicidal activity (percentage phytotoxicity)); 100% in experiment [3] (post-emergence, 360 h, post-emergence, 250 g/ha, 15 DAA, visual score (100%=total damage; 0%=no damage), read-out: ECHCG POST herbicidal activity (percentage phytotoxicity)); 80% in experiment [3] (pre-emergence, 480 h, pre-emergence, 250 g/ha, 20 DAA, visual score (100%=total damage; 0%=no damage), read-out: ECHCG PRE herbicidal activity (percentage phytotoxicity)). Besides, the pest or weed control at 250 g/ha was found to be 100% in experiment [4] (post-emergence, 360 h, post-emergence, 250 g/ha, 15 DAA, visual score (100%=total damage; 0%=no damage), read-out: LOLPE POST herbicidal activity (percentage phytotoxicity)) and 80% in experiment [4] (pre-emergence, 480 h, pre-emergence, 250 g/ha, 20 DAA, visual score (100%=total damage; 0%=no damage), read-out: LOLPE PRE herbicidal activity (percentage phytotoxicity)).
For `C#CCNC(=O)CC1CC(=O)C(c2c(C)cc(OCC(F)(F)F)cc2CC)C1=O` (centres unmarked) [Compound B166], the pest or weed control at 250 g/ha in experiment [1] (post-emergence, 360 h, POST-emergence, rate 250 g/ha, visual score 15 DAA (100%=total damage, 0%=no damage), read-out: Post-emergence herbicidal activity (percentage phytotoxicity) ALOMY POST) is 100%; in experiment [1] (pre-emergence, 480 h, PRE-emergence, rate 250 g/ha, visual score 20 DAA (100%=total damage, 0%=no damage), read-out: Pre-emergence herbicidal activity (percentage phytotoxicity) ALOMY PRE), 100%; in experiment [2] (post-emergence, 360 h, POST-emergence, rate 250 g/ha, visual score 15 DAA (100%=total damage, 0%=no damage), read-out: Post-emergence herbicidal activity (percentage phytotoxicity) AVEFA POST), 100%; in experiment [2] (pre-emergence, 480 h, PRE-emergence, rate 250 g/ha, visual score 20 DAA (100%=total damage, 0%=no damage), read-out: Pre-emergence herbicidal activity (percentage phytotoxicity) AVEFA PRE) it was 100%; in experiment [3] (post-emergence, 360 h, POST-emergence, rate 250 g/ha, visual score 15 DAA (100%=total damage, 0%=no damage), read-out: Post-emergence herbicidal activity (percentage phytotoxicity) ECHCG POST), 100%; in experiment [3] (pre-emergence, 480 h, PRE-emergence, rate 250 g/ha, visual score 20 DAA (100%=total damage, 0%=no damage), read-out: Pre-emergence herbicidal activity (percentage phytotoxicity) ECHCG PRE), 100%. In addition, the pest or weed control at 250 g/ha in experiment [4] (post-emergence, 360 h, POST-emergence, rate 250 g/ha, visual score 15 DAA (100%=total damage, 0%=no damage), read-out: Post-emergence herbicidal activity (percentage phytotoxicity) LOLPE POST) is 100%; in experiment [4] (pre-emergence, 480 h, PRE-emergence, rate 250 g/ha, visual score 20 DAA (100%=total damage, 0%=no damage), read-out: Pre-emergence herbicidal activity (percentage phytotoxicity) LOLPE PRE), 100%.
As to `Cc1cc(-c2ccc(Cl)cn2)cc(C)c1C1C(=O)CC(CC(=O)NCc2cccc(Cl)c2)C1=O` (centres unmarked) [Compound B374], the pest or weed control at 250 g/ha in experiment [1] (setting [13]) was 90%; in experiment [1] (setting [14]), 70%; in experiment [2] (setting [15]), 100%; in experiment [2] (setting [16]), 90%; in experiment [3] (setting [17]), 100%; in experiment [3] (setting [18]) it was 90%. The pest or weed control at 250 g/ha in experiment [4] (setting [19]) and in experiment [4] (setting [20]) was 90% in each case.
As for `Cc1cc(-c2ccc(F)cc2)cc(C)c1C1C(=O)CC(CC(=O)NC(C)(C)C)C1=O` (centres unmarked) [Compound A36], the pest or weed control at 250 g/ha in experiment [1] (post-emergence, 360 h, Rate 250 g/ha, post-emergence, assessed visually 15 DAA, 100%=total damage, 0%=no damage, read-out: Post-emergence herbicidal activity (percentage phytotoxicity) ALOMY POST) is 90%; in experiment [1] (pre-emergence, 480 h, Rate 250 g/ha, pre-emergence, assessed visually 20 DAA, 100%=total damage, 0%=no damage, read-out: Pre-emergence herbicidal activity (percentage phytotoxicity) ALOMY PRE) it was 100%; in experiment [2] (post-emergence, 360 h, Rate 250 g/ha, post-emergence, assessed visually 15 DAA, 100%=total damage, 0%=no damage, read-out: Post-emergence herbicidal activity (percentage phytotoxicity) AVEFA POST), 100%; in experiment [2] (pre-emergence, 480 h, Rate 250 g/ha, pre-emergence, assessed visually 20 DAA, 100%=total damage, 0%=no damage, read-out: Pre-emergence herbicidal activity (percentage phytotoxicity) AVEFA PRE), 100%; in experiment [3] (post-emergence, 360 h, Rate 250 g/ha, post-emergence, assessed visually 15 DAA, 100%=total damage, 0%=no damage, read-out: Post-emergence herbicidal activity (percentage phytotoxicity) ECHCG POST), 100%; in experiment [3] (pre-emergence, 480 h, Rate 250 g/ha, pre-emergence, assessed visually 20 DAA, 100%=total damage, 0%=no damage, read-out: Pre-emergence herbicidal activity (percentage phytotoxicity) ECHCG PRE), 100%. Further, the pest or weed control at 250 g/ha in experiment [4] (post-emergence, 360 h, Rate 250 g/ha, post-emergence, assessed visually 15 DAA, 100%=total damage, 0%=no damage, read-out: Post-emergence herbicidal activity (percentage phytotoxicity) LOLPE POST) was 90%; in experiment [4] (pre-emergence, 480 h, Rate 250 g/ha, pre-emergence, assessed visually 20 DAA, 100%=total damage, 0%=no damage, read-out: Pre-emergence herbicidal activity (percentage phytotoxicity) LOLPE PRE), 100%.
With `Cc1cc(C)c(C2C(=O)CC(CC(=O)NCc3ncccc3C)C2=O)c(C)c1` (centres unmarked) [Compound B67], the pest or weed control at 250 g/ha was 90% in experiment [1] (setting [5]); 90% in experiment [1] (setting [6]); 80% in experiment [2] (setting [7]); 10% in experiment [2] (setting [8]); 80% in experiment [3] (setting [9]); 90% in experiment [3] (setting [10]). Besides, the pest or weed control at 250 g/ha is 70% in experiment [4] (setting [11]) and 90% in experiment [4] (setting [12]).
For `C=CCNC(=O)CC1CC(=O)C(c2c(C)cc(-c3ccc(Cl)cn3)cc2C)C1=O` (centres unmarked) [Compound B370], the pest or weed control at 250 g/ha was found to be 90% in experiment [1] (setting [13]); 100% in experiment [1] (setting [14]); 100% in experiment [2] (setting [15]); 100% in experiment [2] (setting [16]); 100% in experiment [3] (setting [17]); 100% in experiment [3] (setting [18]). The pest or weed control at 250 g/ha in experiment [4] (setting [19]) and in experiment [4] (setting [20]) was 100% in each case.

Values taken from patent publication US10206394B2, “Herbicidal compounds” (Syngenta Participations AG, priority 2014, dated 2019).
